# Measurements as given in patent US20110015119A1, “NOVEL SEMI-SYNTHETIC GLYCOPEPTIDES AS ANTIBACTERIAL AGENTS” (LEAD THERAPEUTICS, INC., priority 2009, published 2011).
# Like-named read-outs stand apart in the source and are kept apart here.
# Experiments:
# Assay type in all cases: cell-based
# [1] = system: Streptococcus pneumoniae 1195 (ATCC 49619); assay: MIC by broth microdilution, SPNE 1195
# In short: (§1)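 Using automated dilution and transfer, MIC values are obtained by NCCLS/CLSI broth microdilution in Mueller-Hinton broth against clinical strains of varying glycopeptide susceptibility.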
# [2] = system: Staphylococcus aureus 100 (ATCC 29213); assay: MIC by broth microdilution, SA 100
# In short: as §1
# [3] = system: Staphylococcus epidermidis 831 (MRSE); assay: MIC by broth microdilution, SE 831; conditions: read-out: MIC SE 831
# In short: as §1
# [4] = system: Enterococcus faecium 800; assay: MIC by broth microdilution, EFcm 800
# In short: as §1
# [5] = system: Enterococcus faecium 752 (VRE, Van A); assay: MIC by broth microdilution, EFcm 752; conditions: class symbols
# In short: as §1
# [6] = system: Streptococcus pyogenes 712; assay: MIC by broth microdilution, SPY 712
# In short: as §1
# [7] = system: Enterococcus faecalis 848 (VRE, Van A); assay: MIC by broth microdilution, EFc 848; conditions: class symbols
# In short: as §1
# [8] = system: Staphylococcus aureus 757 (MRSA); assay: MIC by broth microdilution, SA 757; conditions: read-out: MIC SA 757
# In short: as §1
# [9] = system: Staphylococcus epidermidis 835; assay: MIC by broth microdilution, SE 835
# In short: as §1
# [10] = system: Staphylococcus aureus 2012 (VISA); assay: MIC by broth microdilution, SA 2012; conditions: class symbols
# In short: as §1
# [11] = system: Enterococcus faecalis 101 (ATCC 29212); assay: MIC by broth microdilution, EFc 101; conditions: class symbols
# In short: as §1
# [12] = ATCC49619, Streptococcus pneumoniae 1195 (ATCC 49619), class symbols, read-out: MIC S PNE 1195
# [13] = ATCC29213, Staphylococcus aureus 100 (ATCC 29213), class symbols, read-out: MIC SA 100
# [14] = Staphylococcus epidermidis 831 (MRSE), class symbols
# [15] = Enterococcus faecium 800, class symbols, read-out: MIC E FCM 800
# [16] = Enterococcus faecium 752 (VRE, Van A), read-out: MIC E FCM 752
# [17] = Streptococcus pyogenes 712, class symbols, read-out: MIC S PYO 712
# [18] = Enterococcus faecalis 848 (VRE, Van A), read-out: MIC E FC 848
# [19] = Staphylococcus aureus 757 (MRSA), class symbols
# [20] = Staphylococcus epidermidis 835, class symbols, read-out: MIC SE 835
# [21] = Staphylococcus aureus 2012 (VISA), read-out: MIC SA 2012
# [22] = ATCC29212, Enterococcus faecalis 101 (ATCC 29212), read-out: MIC E FC 101
# [23] = Streptococcus pneumoniae, ATCC49619, read-out: MIC S PNE 1195
# [24] = Staphylococcus aureus, ATCC29213, read-out: MIC SA 100
# [25] = Staphylococcus epidermidis, MRSE
# [26] = Enterococcus faecium, 800, read-out: MIC E FCM 800
# [27] = Enterococcus faecium, VRE, read-out: MIC E FCM 752, Enterococcus faecium 752 (VRE, Van A)
# [28] = Streptococcus pyogenes, 712, read-out: MIC S PYO 712
# [29] = Enterococcus faecalis, VRE, read-out: MIC E FC 848, Enterococcus faecalis 848 (VRE, Van A)
# [30] = Staphylococcus epidermidis, 835, read-out: MIC SE 835
# [31] = Staphylococcus aureus, VISA, read-out: MIC SA 2012, Staphylococcus aureus 2012 (VISA)
# [32] = Enterococcus faecalis, ATCC29212, read-out: MIC E FC 101, Enterococcus faecalis 101 (ATCC 29212)
Compound,"MIC [1, 12] [µg/mL]","MIC [2, 13] [µg/mL]","MIC [3, 14] [µg/mL]","MIC [4, 15] [µg/mL]","MIC [5, 16] [µg/mL]","MIC [6, 17] [µg/mL]","MIC [7, 18] [µg/mL]","MIC [8, 19] [µg/mL]","MIC [9, 20] [µg/mL]","MIC [10, 21] [µg/mL]","MIC [11, 22] [µg/mL]","MIC [1, 23] [µg/mL]","MIC [2, 24] [µg/mL]","MIC [3, 25] [µg/mL]","MIC [4, 26] [µg/mL]","MIC [5, 27] [µg/mL]","MIC [6, 28] [µg/mL]","MIC [7, 29] [µg/mL]","MIC ([8]; Staphylococcus aureus, MRSA) [µg/mL]","MIC [9, 30] [µg/mL]",further results
"CCCCCCc1ccc(S(=O)(=O)NCCOCCNCc2c(O)cc3c(c2O)-c2cc(ccc2O)[C@H]2NC(=O)[C@@H]4NC(=O)[C@H](CC(N)=O)NC(=O)[C@H](NC(=O)[C@@H](CC(C)C)NC)[C@H](O)c5ccc(c(Cl)c5)Oc5cc4cc(c5O[C@@H]4O[C@H](CO)[C@@H](O)[C@H](O)[C@H]4O[C@H]4C[C@]5(C)NC(=O)O[C@@H]5[C@H](C)O4)Oc4ccc(cc4Cl)[C@@H](O)[C@H](NC2=O)C(=O)N[C@@H]3C(=O)O)cc1 (atropisomer, axis not shown) [Compound 308]",0.01 to 0.5,0.01 to 0.5,0.01 to 0.5,0.01 to 0.5,4 to 8,0.01 to 0.5,> 16,0.01 to 0.5,0.01 to 0.5,0.5 to 1,0.01 to 0.5,,,,,,,,,,
"CCCCCCc1ccc(S(=O)(=O)NCCCCCCNCc2c(O)cc3c(c2O)-c2cc(ccc2O)[C@H]2NC(=O)[C@@H]4NC(=O)[C@H](CC(N)=O)NC(=O)[C@H](NC(=O)[C@@H](CC(C)C)NC)[C@H](O)c5ccc(c(Cl)c5)Oc5cc4cc(c5O[C@@H]4O[C@H](CO)[C@@H](O)[C@H](O)[C@H]4O[C@H]4C[C@](C)(NC(C)=O)[C@H](O)[C@H](C)O4)Oc4ccc(cc4Cl)[C@@H](O)[C@H](NC2=O)C(=O)N[C@@H]3C(=O)O)cc1 (atropisomer, axis not shown) [Compound 363]",0.01 to 0.5,0.01 to 0.5,0.01 to 0.5,0.01 to 0.5,2 to 4,0.01 to 0.5,8 to 16,0.01 to 0.5,0.01 to 0.5,0.01 to 0.5,0.01 to 0.5,,,,,,,,,,
"CCCCCCCOc1ccc(S(=O)(=O)NCCCCCCNC(=O)Oc2cc(O)c3c(c2)[C@@H](C(=O)O)NC(=O)[C@H]2NC(=O)[C@H](NC(=O)[C@@H]4NC(=O)[C@H](CC(N)=O)NC(=O)[C@H](NC(=O)[C@@H](CC(C)C)NC)[C@H](O)c5ccc(c(Cl)c5)Oc5cc4cc(c5O[C@@H]4O[C@H](CO)[C@@H](O)[C@H](O)[C@H]4O[C@H]4C[C@](C)(N)[C@H](O)[C@H](C)O4)Oc4ccc(cc4Cl)[C@H]2O)c2ccc(O)c-3c2)cc1 (atropisomer, axis not shown) [Compound 355]",,,,,,,,,,,,0.01 to 0.5,0.01 to 0.5,0.01 to 0.5,0.01 to 0.5,0.01 to 0.5,0.01 to 0.5,1 to 2,0.01 to 0.5,0.01 to 0.5,"MIC [10, 31]: 0.5 to 1 µg/mL; MIC [11, 32]: 0.01 to 0.5 µg/mL"
CCNCCOc1ccc(CCNC(=O)Oc2cc(O)c3c(c2)[C@@H](C(=O)NC2C4CC5CC(C4)CC2C5)NC(=O)[C@H]2NC(=O)[C@H](NC(=O)[C@@H]4NC(=O)[C@H](CC(N)=O)NC(=O)[C@H](NC(=O)[C@@H](CC(C)C)NC)[C@H](O)c5ccc(c(Cl)c5)Oc5cc4cc(c5O[C@@H]4O[C@H](CO)[C@@H](O)[C@H](O)[C@H]4O[C@H]4C[C@](C)(N)[C@H](O)[C@H](C)O4)Oc4ccc(cc4Cl)[C@H]2O)c2ccc(O)c-3c2)cc1 (some centres unmarked) [Compound 337],,,,,,,,,,,,0.01 to 0.5,0.01 to 0.5,0.01 to 0.5,0.01 to 0.5,4 to 8,0.01 to 0.5,8 to 16,0.01 to 0.5,0.01 to 0.5,"MIC [10, 31]: 1 to 2 µg/mL; MIC [11, 32]: 0.01 to 0.5 µg/mL"
"CCCCCCc1ccc(S(=O)(=O)NCCCCCCNCc2c(O)cc3c(c2O)-c2cc(ccc2O)[C@H]2NC(=O)[C@@H]4NC(=O)[C@H](CC(N)=O)NC(=O)[C@H](NC(=O)[C@@H](CC(C)C)NC)[C@H](O)c5ccc(c(Cl)c5)Oc5cc4cc(c5O[C@@H]4O[C@H](CO)[C@@H](O)[C@H](O)[C@H]4O[C@H]4C[C@](C)(NC(=O)[C@H](N)C(C)C)[C@H](O)[C@H](C)O4)Oc4ccc(cc4Cl)[C@@H](O)[C@H](NC2=O)C(=O)N[C@@H]3C(=O)O)cc1 (atropisomer, axis not shown) [Compound 343]",0.01 to 0.5,0.01 to 0.5,0.01 to 0.5,0.01 to 0.5,1 to 2,0.01 to 0.5,8 to 16,0.01 to 0.5,0.01 to 0.5,0.01 to 0.5,0.01 to 0.5,,,,,,,,,,
"CCCCCOc1ccc(CCNC(=O)Oc2cc(O)c3c(c2)[C@@H](C(=O)O)NC(=O)[C@H]2NC(=O)[C@H](NC(=O)[C@@H]4NC(=O)[C@H](CC(N)=O)NC(=O)[C@H](NC(=O)[C@@H](CC(C)C)NC)[C@H](O)c5ccc(c(Cl)c5)Oc5cc4cc(c5O[C@@H]4O[C@H](CO)[C@@H](O)[C@H](O)[C@H]4O[C@H]4C[C@](C)(N)[C@H](O)[C@H](C)O4)Oc4ccc(cc4Cl)[C@H]2O)c2ccc(O)c-3c2)cc1 (atropisomer, axis not shown) [Compound 356]",,,,,,,,,,,,0.01 to 0.5,0.01 to 0.5,0.01 to 0.5,0.01 to 0.5,4 to 8,0.01 to 0.5,> 16,0.01 to 0.5,0.01 to 0.5,"MIC [10, 31]: 1 to 2 µg/mL; MIC [11, 32]: 0.01 to 0.5 µg/mL"
"CCCCCOc1ccc(S(=O)(=O)NCCCCNCc2c(O)cc3c(c2O)-c2cc(ccc2O)[C@H]2NC(=O)[C@@H]4NC(=O)[C@H](CC(N)=O)NC(=O)[C@H](NC(=O)[C@@H](CC(C)C)NC)[C@H](O)c5ccc(c(Cl)c5)Oc5cc4cc(c5O[C@@H]4O[C@H](CO)[C@@H](O)[C@H](O)[C@H]4O[C@H]4C[C@](C)(NC(=O)CN)[C@H](O)[C@H](C)O4)Oc4ccc(cc4Cl)[C@@H](O)[C@H](NC2=O)C(=O)N[C@@H]3C(=O)O)cc1 (atropisomer, axis not shown) [Compound 346]",0.01 to 0.5,0.01 to 0.5,0.01 to 0.5,0.01 to 0.5,8 to 16,0.01 to 0.5,> 16,0.01 to 0.5,0.01 to 0.5,0.5 to 1,0.5 to 1,,,,,,,,,,
CCCCCOc1ccc(S(=O)(=O)NCCCCCCNC(=O)Oc2cc(O)c3c(c2)[C@@H](C(=O)NC2C4CC5CC(C4)CC2C5)NC(=O)[C@H]2NC(=O)[C@H](NC(=O)[C@@H]4NC(=O)[C@H](CC(N)=O)NC(=O)[C@H](NC(=O)[C@@H](CC(C)C)NC)[C@H](O)c5ccc(c(Cl)c5)Oc5cc4cc(c5O[C@@H]4O[C@H](CO)[C@@H](O)[C@H](O)[C@H]4O[C@H]4C[C@](C)(N)[C@H](O)[C@H](C)O4)Oc4ccc(cc4Cl)[C@H]2O)c2ccc(O)c-3c2)cc1 (some centres unmarked) [Compound 317],,,,,,,,,,,,0.01 to 0.5,1 to 2,1 to 2,0.01 to 0.5,1 to 2,0.01 to 0.5,8 to 16,0.5 to 1,2 to 4,"MIC [10, 31]: 8 to 16 µg/mL; MIC [11, 32]: 1 to 2 µg/mL"
"CCCCCCc1ccc(S(=O)(=O)NCCCCCCNCc2c(O)cc3c(c2O)-c2cc(ccc2O)[C@H]2NC(=O)[C@@H]4NC(=O)[C@H](CC(N)=O)NC(=O)[C@H](NC(=O)[C@@H](CC(C)C)NC)[C@H](O)c5ccc(c(Cl)c5)Oc5cc4cc(c5O[C@@H]4O[C@H](CO)[C@@H](O)[C@H](O)[C@H]4O[C@H]4C[C@](C)(NC(=O)[C@@H](C)N)[C@H](O)[C@H](C)O4)Oc4ccc(cc4Cl)[C@@H](O)[C@H](NC2=O)C(=O)N[C@@H]3C(=O)O)cc1 (atropisomer, axis not shown) [Compound 342]",0.01 to 0.5,0.01 to 0.5,0.01 to 0.5,0.01 to 0.5,0.5 to 1,0.01 to 0.5,4 to 8,0.01 to 0.5,0.01 to 0.5,0.01 to 0.5,0.01 to 0.5,,,,,,,,,,
CNCCCOc1ccc(NC(=O)Oc2cc(O)c3c(c2)[C@@H](C(=O)NC2C4CC5CC(C4)CC2C5)NC(=O)[C@H]2NC(=O)[C@H](NC(=O)[C@@H]4NC(=O)[C@H](CC(N)=O)NC(=O)[C@H](NC(=O)[C@@H](CC(C)C)NC)[C@H](O)c5ccc(c(Cl)c5)Oc5cc4cc(c5O[C@@H]4O[C@H](CO)[C@@H](O)[C@H](O)[C@H]4O[C@H]4C[C@](C)(N)[C@H](O)[C@H](C)O4)Oc4ccc(cc4Cl)[C@H]2O)c2ccc(O)c-3c2)cc1 (some centres unmarked) [Compound 333],,,,,,,,,,,,2 to 4,4 to 8,8 to 16,2 to 4,> 16,1 to 2,> 16,4 to 8,8 to 16,"MIC [10, 31]: > 16 µg/mL; MIC [11, 32]: 4 to 8 µg/mL"
